Data published in patent publication US8377963B2, “Insulin-regulated aminopeptidase (IRAP) inhibitors and uses thereof” (Howard Florey Institute, priority 2007, dated 2013).

Tests used:
rats [1] = experiment: Elevated plus maze (stress or anxiety); assay type: in vivo, rat; conditions: for Time spent in the open arm (% control): rats, n=8 per group
Method: (§1) All experiments were performed according to the National Health and Medical Research Council of Australia “Code of practise for the care and use of animals for scientific purposes”. Male Spraque Dawley rats, (250-270 g) are housed individually and given water and standard rat chow ad libitum. On the day of surgery, the rats were anaesthetized with 5% isofluorane, placed in a stereotaxic frame and maintained on 2% isofluorane for the duration of the cannula implantation procedure. The rats were stereotaxically implanted with chronic indwelling cannula (Plastics One) into the cerebral lateral ventricles using the following flat skull coordinates 0.8 mm posterior to Bregma, 1.55 mm lateral to midline and 3.5 mm ventral to the dura. The cannula was then secured to the skull with stainless steel screws and dental cement. Seven days following surgery, proper cannula placement was verified by a bolus injection of angiotensin II (1 nmol/μl).
The elevated plus maze was used to investigate the potential effect of IRAP inhibitors on stress or anxiety. The elevated plus maze consists of two open arms (70×10 cm) with a 5 cm high surrounding wall and two enclosed arms (70×10 cm) with a 27 cm high surrounding wall. The floor of the open and closed arms are white laminate, the open arm walls are clear perspex, and the closed arms walls dark grey perspex. The maze is elevated 85 cm above the ground in the centre of a room that is lit by overhead lights generating 1241 ux. […] The time spent in the closed arms compared to the open arms was a measure of the anxiety status of the animals.

rats [2] = experiment: Locomotor cell activity; assay type: in vivo, rat; conditions: 30 mins; for Distance travelled (% control): rats, n=8 per group
Method: as §1
Locomotor activity of rats treated with 1 nmol Compound 2 intracerebrocentricularly was monitored in special cages measuring 40×40×40 cm (Coulbourn Instruments, Philadelphia, USA) equipped with harmless infrared photobeams. Activity was measured when pairs of photobeams spaced 2.54 cm apart providing a 1.27 cm spatial resolution were crossed. Data was collected and analysed using TruScan Photo Beam Activity system (Coulbourn Instruments, Philadelphia, USA). Each rat was placed in the arena for 30 min.

Recombinant human LTA4H = target: T1, Recombinant human LTA4H (Homo sapiens, UniProt P09960); experiment: Leukotriene A4 hydrolase assay; assay type: biochemical; conditions: 100 μM; read-out: % inhibition of the catalytic activity of the enzyme
T1 construct: purchased Cayman Chemicals
T1 sequence (P09960 1-611): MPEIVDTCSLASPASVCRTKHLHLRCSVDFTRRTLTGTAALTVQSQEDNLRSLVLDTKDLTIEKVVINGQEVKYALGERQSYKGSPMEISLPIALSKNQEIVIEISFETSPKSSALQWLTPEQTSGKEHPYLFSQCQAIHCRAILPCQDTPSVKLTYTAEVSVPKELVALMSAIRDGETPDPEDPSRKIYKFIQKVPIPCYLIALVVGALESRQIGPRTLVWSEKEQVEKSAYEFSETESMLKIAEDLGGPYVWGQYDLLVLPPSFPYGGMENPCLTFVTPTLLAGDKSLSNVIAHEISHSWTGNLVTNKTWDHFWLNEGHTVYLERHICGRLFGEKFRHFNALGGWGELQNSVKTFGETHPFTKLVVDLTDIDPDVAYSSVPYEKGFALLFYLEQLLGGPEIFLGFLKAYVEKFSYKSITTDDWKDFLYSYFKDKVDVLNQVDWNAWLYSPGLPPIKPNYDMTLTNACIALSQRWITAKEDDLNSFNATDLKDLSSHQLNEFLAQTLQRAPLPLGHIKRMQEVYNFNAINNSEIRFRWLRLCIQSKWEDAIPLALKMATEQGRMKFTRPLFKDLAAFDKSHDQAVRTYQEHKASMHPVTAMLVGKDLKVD
Method: Leukotriene A4 hydrolase assay. Recombinant human LTA4H (Cayman Chemicals Michigan USA) (1-20 μg) was incubated at room temperature with alanine-p-nitroanilide as substrate in 50 mM Tris-HCl buffer, pH 8.0, containing 100 mM KCl with or without increasing concentrations of an inhibitor. The absorbance at 405 nm was measured at 10 min intervals.
Limited inhibition of control enzymes was observed.

hippocampal slices = experiment: Hippocampal glucose uptake assay; assay type: cell-based; conditions: rat hippocampal slices
Method: Hippocampal glucose uptake assay. Eight week old male Spraque-Dawley rats were deeply anaesthetised with Isofluorothane and killed by decapitation. The brains were rapidly removed and placed into ice-cold, 95% O2, 5% CO2-bubbled artificial cerebrospinal fluid (aCSF: 124 mM NaCl, 2.5 mM KCl, 2 mM CaCl2, 2 mM MgSO4, 26 mM NaHCO3, 1.25 mM NaH2 PO4 pH 7.4) supplemented with 10 mM D-glucose (Sigma). Under aCSF, the hippocampal hemispheres were rapidly dissected out and 200 μm slices prepared on McIllwain tissue chopper with an ice-cold blade and stage. Slices from each hemisphere were kept together and transferred to freshly 95% O2, 5% CO2-bubbled aCSF supplemented with 10 mM D-glucose at 37° C. for 1 hour. All subsequent steps were carried out at 37° C. in a gently shaking chamber with continuous infusion of 95% O2, 5% CO2. Slices from one hemisphere were used as a basal control while slices from the other hemisphere were stimulated, providing an internal control for each animal. […] Tritium content was measured in a Liquid Scintillation Analyser 1900TR (Perkin Elmer, MA, USA).

rats [3] = experiment: Spontaneous alternation plus maze; assay type: in vivo, rat; conditions: for Spontaneous Alternation Score (%): rats, n=8/group
Method: as §1
The plus maze was composed of four arms with each arm measuring 75×10×20 cm. The floor and walls of the central platform and the floors of the arms were made of black plastic. Spontaneous alternation testing was conducted by placing the rat on the center platform of the maze and allowing 20 min of unimpeded exploration. The number and sequence of arm entries were recorded for calculation of a percent alternation score. An alternation consisted of 4 different arm choices of 5 consecutive arm entries. A ⅘ alternation score was computed by dividing the number of observed alternations in overlapping quintuplets by the number of possible alternations and multiplying the quotient by 100.

[4] = 0.1 nmol intracerebroventricularly
[5] = 1 nmol intracerebroventricularly
[6] = 0.1 and 1 nmol intracerebroventricularly

CCOC(=O)C1=C(NC(C)=O)Oc2cc(O)ccc2C1c1cccnc1 (stereo not drawn) [Compound 2, Ethyl 2-(acetylamino)-7-hydroxy-4-pyridin-3-yl-4H-chromene-3-carboxylate]
Time spent in the open arm (% control) (rats [1]; [4]): 121.62 ± 28.26 % control
Time spent in the open arm (% control) (rats [1]; [5]): 127.88 ± 19.18 % control
stress compared to vehicle, by time spent in the open arm of the elevated plus maze (rats [1]; [6]): not significantly more or less stressed
Distance travelled (% control) (rats [2]; [4]): 85.12 ± 12.99 % control
Distance travelled (% control) (rats [2]; [5]): 90.16 ± 6.73 % control
locomotor activity compared to vehicle, by crossing of infrared beams and total distance travelled (rats [2]; [6]): did not exhibit increased or decreased locomotor activity
inhibition at 100 µM (Recombinant human LTA4H): 0%
Fold change in 3H-2DOG uptake (hippocampal slices; dbcAMP & compound versus dbcAMP alone (=1), 100 nM): 1.7
dibutyryl cAMP-evoked glucose uptake (hippocampal slices): increase in dibutyryl cAMP-evoked glucose uptake
Spontaneous Alternation Score (%) (rats [3]; [4]): 73.70 ± 3.14 %
spontaneous alternation scores compared to vehicle treated control rats (rats [3]; 0.1 nmole, p<0.01): significantly enhanced spontaneous alternation scores
Spontaneous Alternation Score (%) (rats [3]; [5]): 64.34 ± 2.49%
